Experimental data as given in US20210308034A1, “PREBIOTIC COMPOSITIONS AND METHODS FOR MAINTAINING A HEALTHY SKIN MICROBIOTA” (KIMBERLY-CLARK WORLDWIDE, INC., priority 2018, published 2021).

How the values were obtained:
Type in all cases: cell-based
[1] = system: Corynebacterium jeikum (ATCC 33033); assay: Carbohydrate Screening Test Method (Biolog phenotype microarray), Bacteria Code B; settings: Commensal; carbon microarray plate, OD 600 nm, 36 hr, 33° C.; positive = more than 0.05 OD units above zero; blank cell = not utilized
How it was run: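 Strain from M9*2 agar was suspended in M9*1 medium, washed and inoculated into Biolog PM1/PM2 carbon plates. Carbohydrate use was scored yes/no, and growth rate and maximum yield were derived with GrowthRates 2.1, with max yields used for commensal ratios.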

[2] = system: Micrococcus luteus (SK58); assay: Carbohydrate Screening Test Method (Biolog phenotype microarray), Bacteria Code E; settings: Commensal; carbon microarray plate, OD 600 nm, 36 hr, 33° C.; positive = more than 0.05 OD units above zero; blank cell = not utilized
How it was run: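 Each commensal strain grown in Biolog carbon phenotype microarray plates with single carbohydrate sources. Growth curves fitted with GrowthRates 2.1 to give growth rate and maximum yield. Max yields used to calculate predicted co-culture ratios between Corynebacterium, Staphylococcus and Micrococcus, compared with desired ratios of 1.3, 1.4 and 1.1.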

[3] = system: Staphylococcus aureus (ATCC 6538); assay: Carbohydrate Screening Test Method (Biolog phenotype microarray), Bacteria Code G; settings: Pathogenic; carbon microarray plate, OD 600 nm, 36 hr, 33° C.; positive = more than 0.05 OD units above zero; blank cell = not utilized
Description: (§1) After creating desired ratios of various commensal skin bacteria in a healthy skin microbiome, 188 different carbohydrate sources were screened as the next step in determining potential prospects for skin microbiota balancing agents. The screening process was set up to determine which carbohydrate sources promoted commensal and/or pathogenic bacteria as well as to obtain individual and combinations of carbohydrate sources that could serve as microbiota balancing agents that can support or maintain the healthy proportions of commensal skin bacteria of Corynebacterium, Staphylococcus, and Micrococcus. The screening was conducted utilizing Biolog phenotype microarray plates (Hayward, Calif.). Table 1 provides a coded list of the commensal and pathogenic skin bacteria that the carbohydrates were screened against.
(§2) Table 2 provides the results of screening various carbohydrate sources against the commensal and pathogenic bacteria codes listed in Table 1. The Bacteria Codes B, D, E, I, and J are commensal bacteria and are shaded in Table 2 for references purposes. The bacteria codes were each placed in a carbon microarray plate and screened through the Carbohydrate Screening Test Method, as described in the Test Methods section herein. If a particular bacteria code utilized a specific carbohydrate source as described in the Carbohydrate Screening Test Method, then the corresponding cell in Table 2 was marked with a Y (short for “Yes”). […] Many of the carbohydrate sources were utilized by both commensal and pathogenic bacteria, and as such, would not provide an advantage for selective growth of the commensal bacteria. However, some of the carbohydrate sources were only used by commensal bacteria and were identified for further testing as described herein.
(§3) The study employed 10 representative skin bacteria; Staphylococcus epidermidis ATCC 14990, Staphylococcus epidermidis M23864:W2, Staphylococcus aureus ATCC 6538, Staphylococcus aureus ATCC 25904 (Newman), Pseudomonas aeruginosa ATCC 9027, Micrococcus luteus ATCC […], Micrococcus luteus SK58, Klebsiella pneumoniae ATCC BAA-2146, Corynebacterium amycolatum SK46, and Corynebacterium minutissimum ATCC 23348. Cultures were started from freezer bead stocks by placing a single bead into 20 mL of tryptic soy broth (TSB) for all organisms except C. amycolatum SK46 and C. minutissimum ATCC 23348, which were placed into brain heart infusion (BHI) broth. Cultures were grown for about 24 hr at 37° C. except M. luteus ATCC 49732 and M. luteus SK58, which were grown at 30° C. A passage of the culture was made using a sterile swab and streaked onto two M9*2 agar plates to prepare the incubated culture for the phenotype microarray pate according to Table 4. Plates were incubated for about 24 hr at 37° C. except for M. luteus ATCC 49732 and M. luteus SK58, which were incubated at 30° C. for 24 hr.
(§4) All cultures were harvested and washed before inoculation into the carbon microarray plate (BiOLOG, Hayward Calif.), with Biolog Plates PM1 and PM2 each having a source definition of Carbon. The bacteria on the M9*2 agar was suspended via agitation with an inoculating loop in 1 mL of M9*1 media for collection in a 1.7 mL micro centrifuge tube, as noted in Table 4. The bacteria was suspended again in M9*1 media, agitated, and collected into the same 1.7 mL microcentrifuge tube used in the previous step. The tube was centrifuged for 5 minutes at 4,000×G, supernatant decanted, the pellet was resuspended in 1 mL of M9*1 media, and vortex. This washing process was repeated for a total of 4 times.
(§5) A tenfold dilution in M9*1 media was performed using 1 mL of the washed bacterial culture. Of the tenfold dilution 200 μL was placed in an untreated 96-well plate (Falcon, Pasadena Tx.) for an initial optical density (OD) reading at a wavelength of 600 nm. The OD was used to correlate to colony forming units (CFU) per milliliter by using linear regression lines for each organism. […]

[4] = system: Staphylococcus aureus (ATCC 25904) (Newman); assay: Carbohydrate Screening Test Method (Biolog phenotype microarray), Bacteria Code H; settings: Pathogenic; carbon microarray plate, OD 600 nm, 36 hr, 33° C.; positive = more than 0.05 OD units above zero; blank cell = not utilized
Description: as §1, §2, §3, §4, §5

[5] = system: Staphylococcus epidermidis (M23864:W2); assay: Carbohydrate Screening Test Method (Biolog phenotype microarray), Bacteria Code J; settings: Commensal; carbon microarray plate, OD 600 nm, 36 hr, 33° C.; positive = more than 0.05 OD units above zero; blank cell = not utilized
[6] = system: Corynebacterium minutissimum (ATCC 23348); assay: Carbohydrate Screening Test Method (Biolog phenotype microarray), Bacteria Code A; settings: Pathogenic; carbon microarray plate, OD 600 nm, 36 hr, 33° C.; positive = more than 0.05 OD units above zero; blank cell = not utilized
Description: as §1, §2, §3, §4, §5

[7] = system: Klebsiella pneumoniae (ATCC BAA-2146); settings: Pathogenic; carbon microarray plate, OD 600 nm, 36 hr, 33° C.; positive = more than 0.05 OD units above zero; blank cell = not utilized
[8] = system: Pseudomonas aeruginosa (ATCC 9027); settings: Pathogenic; carbon microarray plate, OD 600 nm, 36 hr, 33° C.; positive = more than 0.05 OD units above zero; blank cell = not utilized
How it was run: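 Carbon-source utilisation screen on Biolog PM1/PM2 plates: strain grown in TSB then on M9*2 agar, each ~24 h at 37 °C, washed four times in M9*1 and diluted tenfold. OD600 correlated to CFU/mL; each carbohydrate scored Yes when utilised.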

[9] = system: Staphylococcus epidermidis (ATCC 14990); assay: Carbohydrate Screening Test Method (Biolog phenotype microarray), Bacteria Code I; settings: Commensal; carbon microarray plate, OD 600 nm, 36 hr, 33° C.; positive = more than 0.05 OD units above zero; blank cell = not utilized
How it was run: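 Staphylococcus epidermidis ATCC 14990, a commensal skin bacterium, was grown from a freezer bead in 20 mL tryptic soy broth for about 24 hr at 37° C. It was then streaked onto M9*2 agar and incubated a further 24 hr at 37° C. Cells were harvested, resuspended in M9*1 media, centrifuged 5 minutes at 4,000×G and washed 4 times.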

[10] = system: Micrococcus luteus (ATCC 49732); assay: Carbohydrate Screening Test Method (Biolog phenotype microarray), Bacteria Code D; settings: Commensal; carbon microarray plate, OD 600 nm, 36 hr, 33° C.; positive = more than 0.05 OD units above zero; blank cell = not utilized
Description: as §1, §2, §3, §4, §5

O=C(CO)[C@@H](O)[C@H](O)[C@H](O)COP(=O)(O)O [D-Fructose-6-Phosphate]
Y: Carbohydrate Screening Results, Bacteria Code B [1] | Carbohydrate Screening Results, Bacteria Code E [2] | Carbohydrate Screening Results, Bacteria Code G [3] | Carbohydrate Screening Results, Bacteria Code H [4] | Carbohydrate Screening Results, Bacteria Code J [5]

O=C(CO)[C@@H](O)[C@H](O)[C@H](O)CO [D-Fructose]
Y: Carbohydrate Screening Results, Bacteria Code A [6] | Carbohydrate Screening Results, Bacteria Code B [1] | Carbohydrate Screening Results, Bacteria Code C [7] | Carbohydrate Screening Results, Bacteria Code E [2] | Carbohydrate Screening Results, Bacteria Code G [3] | Carbohydrate Screening Results, Bacteria Code H [4] | Carbohydrate Screening Results, Bacteria Code J [5]

O=C[C@H](O)[C@@H](O)[C@H](O)[C@H](O)COP(=O)(O)O [D-Glucose-6-Phosphate]
Y: Carbohydrate Screening Results, Bacteria Code C [7] | Carbohydrate Screening Results, Bacteria Code E [2] | Carbohydrate Screening Results, Bacteria Code F [8] | Carbohydrate Screening Results, Bacteria Code G [3] | Carbohydrate Screening Results, Bacteria Code I [9] | Carbohydrate Screening Results, Bacteria Code J [5]

OC[C@@H](O)[C@@H](O)[C@H](O)[C@H](O)CO [D-Mannitol]
Y: Carbohydrate Screening Results, Bacteria Code B [1] | Carbohydrate Screening Results, Bacteria Code C [7] | Carbohydrate Screening Results, Bacteria Code E [2] | Carbohydrate Screening Results, Bacteria Code F [8] | Carbohydrate Screening Results, Bacteria Code G [3] | Carbohydrate Screening Results, Bacteria Code H [4]

O=C[C@@H](O)[C@@H](O)[C@H](O)[C@H](O)CO [D-Mannose]
Y: Carbohydrate Screening Results, Bacteria Code A [6] | Carbohydrate Screening Results, Bacteria Code B [1] | Carbohydrate Screening Results, Bacteria Code C [7] | Carbohydrate Screening Results, Bacteria Code E [2] | Carbohydrate Screening Results, Bacteria Code G [3] | Carbohydrate Screening Results, Bacteria Code H [4]

OC[C@H]1O[C@H](O[C@H]2O[C@H](CO)[C@@H](O)[C@H](O)[C@H]2O)[C@H](O)[C@@H](O)[C@@H]1O [D-Trehalose]
Y: Carbohydrate Screening Results, Bacteria Code B [1] | Carbohydrate Screening Results, Bacteria Code C [7] | Carbohydrate Screening Results, Bacteria Code D [10] | Carbohydrate Screening Results, Bacteria Code E [2] | Carbohydrate Screening Results, Bacteria Code F [8] | Carbohydrate Screening Results, Bacteria Code G [3] | Carbohydrate Screening Results, Bacteria Code H [4]

OC[C@H]1O[C@@](CO)(O[C@H]2O[C@H](CO)[C@@H](O)[C@H](O)[C@H]2O)[C@@H](O)[C@@H]1O [Sucrose]
Y: Carbohydrate Screening Results, Bacteria Code A [6] | Carbohydrate Screening Results, Bacteria Code B [1] | Carbohydrate Screening Results, Bacteria Code C [7] | Carbohydrate Screening Results, Bacteria Code E [2] | Carbohydrate Screening Results, Bacteria Code F [8] | Carbohydrate Screening Results, Bacteria Code G [3] | Carbohydrate Screening Results, Bacteria Code J [5]

OC[C@H]1O[C@H](O)[C@H](O)[C@@H](O)[C@@H]1O [α-D-Glucose]
Y: Carbohydrate Screening Results, Bacteria Code A [6] | Carbohydrate Screening Results, Bacteria Code B [1] | Carbohydrate Screening Results, Bacteria Code C [7] | Carbohydrate Screening Results, Bacteria Code E [2] | Carbohydrate Screening Results, Bacteria Code F [8] | Carbohydrate Screening Results, Bacteria Code G [3] | Carbohydrate Screening Results, Bacteria Code H [4] | Carbohydrate Screening Results, Bacteria Code I [9] | Carbohydrate Screening Results, Bacteria Code J [5]
